Data set [1] deals with acute hypoxic challenge. The experiment in a line: Pressure response of the PA to acute hypoxic challenge. Format: in vivo, rat. As to conditions: 3 weeks of hypoxia under DHEA treatment; response disappeared without DHEA.
Procedure: To determine the effect of the chronic hypoxia treatment-induced CH-PAH and to determine the effect of DHEA administration on PAP, the following PAP measurement method was used. Rats were anaesthetized with ketamine 50 mg/kg and xylazine 10 mg/kg by i.p. injection. […] The effect of DHEA on the systemic blood pressure was controlled by another catheter placed into the left carotid artery. Throughout all the experiments, heart rate and oxygen saturation were monitored. Acute hypoxic stress with fraction of inspired O2 of 10% were applied by administration of an air plus nitrogen gas mixture. The fraction of inspired O2 was monitored with an oxygen analyzer (Servomex, Crowborough, Great Britain), and the effects on the PAP were measured over a 10-15 minute period.
Data set [2] relates to chronic hypoxic-pulmonary artery hypertension (CH-PAH). Put plainly: Echocardiography: right ventricular (RV) wall thickness in CH rats. It is filed as in vivo, rat. The protocol:
The rat model experiments were performed as follows. Adult male Wistar rats (220-240 g) were randomized into five groups. […] Intravascular administration was performed via the catheter inserted in the right jugular vein.
To perform this procedure, the rats were first anaesthetized.

Data set [3] addresses T1, BKCa (Rattus norvegicus, UniProt Q62976).
T1 construct: from tissue; host or cells: intrapulmonary artery rings of adult male Wistar rats
The experiment in a line: IbTx-induced contraction of IPA rings from CH-DHEA rats. Format: in vivo. Particulars: for increase of tension induced by IbTx: rings from CH-DHEA rats compared with control and CH rats. The protocol: Statistical analyses for the experiments described herein were performed by using NCSS 5.0 software (NCSS, Kaysville, Utah). Values were expressed as mean±SEM. Contractions were expressed as a percentage of K^+-rich (80 mM) solution-induced contractions. Intergroup differences were assessed by a repeated-measures ANOVA or factorial ANOVA, as appropriate. Post hoc analysis used a Fisher multiple comparison test. For some comparisons, the Pearson product moment correlation coefficient between pairs of variables was used as indicated (ORIGIN 5.0, OriginLab, Northampton, Mass.). Regarding the number of experiments, (n) refers to the number of rings or cells and (N) to the number of animals. Differences were considered significant when P<0.05.
The heart and lungs were removed and intrapulmonary arteries (IPAs) (150-300 μm of internal diameter) were then dissected. The adventitial and intimal layers were removed. For contraction experiments, rings (3 mm in length) were prepared.
CH induces remodeling of the intrapulmonary artery (IPA) in the rat model of CH-PAH. To examine the changes in the IPA wall upon CH exposure, the following method was performed. Isometric contractions were measured in rings from IPAs that were mounted in vertical 5-ml organ baths of a computerized isolated organ bath system (IOX, EMKA Technologies, Paris), as described in Bonnet, S., et al. (2001, Am. J. Physiol. 281, L183-L192, which is incorporated by reference herein in its entirety). Baths were filled with Krebs-Henseleit solution (composition in mM: 118.4 NaCl/4.7 KCl/2.5 CaCl2/1.2 MgSO4/1.2 KH2PO4/25 NaHCO3/11.1 D-glucose, pH 7.4). The baths were maintained at 37° C. and bubbled with a 95% O2/5% CO2 gas mixture. […] A concentration increment was made once the maximal contractile effect of the preceding concentration had been recorded.

For data set [4], the system named is BKCa. Put plainly: Immunoblot of BKCa in arterial pulmonary extracts. Particulars: oral DHEA 3 weeks. It is filed as in vivo, rat. The protocol: The level of expression of BKCa was examined using an immunoblot. Arterial pulmonary extracts were prepared from a pool of eight rats per sample and condition. Three separate samples were taken for each condition. The samples were ground in liquid N2, homogenized in RIPA buffer (1% Nonidet P-40/0.5% deoxycholate sodium/0.1% SDS/10 μg/ml aprotinin/100 μg/ml leupeptin/1 mM 4-(2-aminoethyl)benzenesulfonylfluoride in PBS) with a polytron (Bioblock Scientific), and then centrifuged. The extract was verified by Coomassie blue staining. Each sample was loaded at 10 μg in 7.5% resolving acrylamide gel and electrotransferred on to a nylon membrane. Immunoblot analyses used rabbit mAb against rat BKCa (Alomone Labs, Jerusalem, no. APC-021 at 1/500) and mouse monoclonal anti-actin (Santa Cruz Biotechnology, clone C-2 at 1/500). […] All experiments were repeated two or three times. Quantification of the data was performed using the SCION IMAGE program from the National Institutes of Health.
(In general: Immunoblotting shows a protein as a band on a membrane.)

The conditions of data set [5]: cited from earlier work.
Data set [6] has as its system systemic circulation. Put plainly: Systemic circulation and cardiac function (systemic blood pressure, heart rate, cardiac output). The protocol: To determine the effect of the chronic hypoxia treatment-induced CH-PAH and to determine the effect of DHEA administration on PAP, the following PAP measurement method was used. Rats were anaesthetized with ketamine 50 mg/kg and xylazine 10 mg/kg by i.p. injection. Mean PAP was measured with 2.5-F catheters inserted into the right jugular vein in closed-chest rats (Bonnet, S., et al. (2002) Cardiovasc. Res. 53, 1019-1028, which is incorporated by reference herein in its entirety). The effect of DHEA on the systemic blood pressure was controlled by another catheter placed into the left carotid artery. Throughout all the experiments, heart rate and oxygen saturation were monitored. Acute hypoxic stress with fraction of inspired O2 of 10% were applied by administration of an air plus nitrogen gas mixture. The fraction of inspired O2 was monitored with an oxygen analyzer (Servomex, Crowborough, Great Britain), and the effects on the PAP were measured over a 10-15 minute period.
Echocardiography measurements were also performed to determine differences between the treated and control rats. To perform this procedure, the rats were first anaesthetized. After thorax epilation, the animals were placed in the left lateral decubitus position. Resting echocardiography measurements were performed at ambient conditions by using a SONOS 5500 (Philips) echocardiograph and a 12-MHz sector scare transducer. Right and left ventricle wall thickness was measured on M-mode tracings following the recommendations of the American Society of Echocardiology as described by Jones et al. ((2002) Am. J. Physiol. 283, H364-H371). Right cardiac output was evaluated by measuring the electrical R-R delay, the PA diameter, and the velocity time integral (VTI) of PA flux.

Where [7] appears, read: one week oral DHEA treatment in CH rats.

The structures appear in SMILES notation. Entries after “also recorded” stand apart in the source; their conditions may differ.

T1 sequence (Q62976 whole entry): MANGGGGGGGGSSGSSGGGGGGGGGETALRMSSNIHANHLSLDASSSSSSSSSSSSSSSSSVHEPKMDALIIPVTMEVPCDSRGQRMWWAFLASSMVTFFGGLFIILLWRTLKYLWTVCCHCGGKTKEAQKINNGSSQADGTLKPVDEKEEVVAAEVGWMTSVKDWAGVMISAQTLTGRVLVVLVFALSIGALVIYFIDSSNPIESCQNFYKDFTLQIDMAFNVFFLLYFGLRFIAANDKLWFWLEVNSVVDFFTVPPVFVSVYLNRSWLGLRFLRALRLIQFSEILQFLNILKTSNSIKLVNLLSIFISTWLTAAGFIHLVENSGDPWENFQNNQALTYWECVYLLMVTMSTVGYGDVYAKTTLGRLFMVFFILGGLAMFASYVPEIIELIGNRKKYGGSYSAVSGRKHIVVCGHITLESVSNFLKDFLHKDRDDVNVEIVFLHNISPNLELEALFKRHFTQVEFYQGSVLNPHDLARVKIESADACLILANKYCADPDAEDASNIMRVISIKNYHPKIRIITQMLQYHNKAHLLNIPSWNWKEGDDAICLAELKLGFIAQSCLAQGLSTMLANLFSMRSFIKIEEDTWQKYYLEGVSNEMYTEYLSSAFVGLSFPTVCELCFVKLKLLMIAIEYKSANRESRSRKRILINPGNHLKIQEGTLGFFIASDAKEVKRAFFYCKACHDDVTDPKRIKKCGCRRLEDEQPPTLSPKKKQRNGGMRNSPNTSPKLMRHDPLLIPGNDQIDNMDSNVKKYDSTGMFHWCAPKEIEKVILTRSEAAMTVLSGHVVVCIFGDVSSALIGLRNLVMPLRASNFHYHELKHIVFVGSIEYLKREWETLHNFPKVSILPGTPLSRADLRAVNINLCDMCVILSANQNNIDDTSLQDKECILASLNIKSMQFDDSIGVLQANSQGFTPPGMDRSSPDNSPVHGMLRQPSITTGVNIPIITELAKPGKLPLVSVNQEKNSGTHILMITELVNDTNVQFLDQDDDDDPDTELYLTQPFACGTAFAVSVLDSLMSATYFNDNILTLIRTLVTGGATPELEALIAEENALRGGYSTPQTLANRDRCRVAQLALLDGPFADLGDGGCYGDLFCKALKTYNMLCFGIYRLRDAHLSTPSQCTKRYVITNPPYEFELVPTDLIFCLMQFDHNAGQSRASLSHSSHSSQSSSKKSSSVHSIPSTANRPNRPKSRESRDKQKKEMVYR
T1 sequence (P97678 whole entry partner): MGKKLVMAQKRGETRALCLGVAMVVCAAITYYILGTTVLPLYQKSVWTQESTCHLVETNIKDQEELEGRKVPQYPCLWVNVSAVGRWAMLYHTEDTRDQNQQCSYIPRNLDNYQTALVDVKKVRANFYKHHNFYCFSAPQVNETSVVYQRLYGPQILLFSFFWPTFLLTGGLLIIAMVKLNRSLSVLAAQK

On to `C[C@]12CC[C@H](O)CC1=CC[C@@H]1[C@@H]2CC[C@]2(C)C(=O)CC[C@@H]12` [DHEA, dehydroepiandrosterone], for which the “pressure response to an acute hypoxic challenge” value in data set [1] is “restored”. The RV wall thickness stood at 1.6±0.03 mm in data set [2] (CH-DHEA rats, oral DHEA during 3 wk hypoxia, untreated CH 2.74±0.5) and 1.91±0.2 mm in data set [2] (rats 3 weeks in CH, oral DHEA during the last week, no DHEA 2.97±0.4). Further, the “RV wall thickness, CH-DHEA vs control rats” value in data set [2] (after 1 or 2 wk of hypoxia exposure with oral DHEA) was “no difference”. Besides, the “effect on RV wall thickness / right ventricle hypertrophy (prevention)” value in data set [2] (oral DHEA for 3 weeks during chronic hypoxia) is reported as “significant preventive effect; also recorded: decreased; also recorded: almost entirely prevent”. For the same compound, in data set [2] (oral DHEA, normoxic rats), the “effect on RV wall thickness” value is recorded as “no effect”. Further, the “increase of tension induced by IbTx” value in data set [3] (100 nM IbTx) was 52%; in data set [3] (300 nM IbTx), 55%. The “sensitivity/reactivity of IPA rings to IbTx” value in data set [3] (rings from CH-DHEA rats vs CH rats) is “increase the sensitivity for IbTx; also recorded: increase in the IbTx response; also recorded: higher reactivity to IbTx”. Besides, the “effect on CH-induced decrease of BKCa protein” value in data set [4] is recorded as “This decrease was prevented; also recorded: up-regulation”. The “immunoreactive signal of BKCa-subunit, CH-DHEA higher than CH” value in data set [4] (three separate comparisons) was 48.6±5.6%. In addition, the “toxicity in short- and long-term human studies” value in data set [5] (Baulieu et al. 2000) is “without major toxicity”. Moreover, in data set [5] (Tummala & Svec 1999), the “safety of large amounts in human patients” value is recorded as “safely administered”. For the same compound, the cardiac output result in data set [6] (setting [7]) is given as “did not affect”; in data set [6] (oral DHEA 3 weeks), “No significant changes”. The heart rate result in data set [6] (setting [7]) was “did not affect”; in data set [6] (oral DHEA 3 weeks), “No significant changes”. In addition, the systemic pressure entry in data set [6] (setting [7]) is on record as “did not affect”. Also, in data set [6] (oral DHEA 3 weeks, CH-DHEA rats (FIG. 1 D and E)), the cardiac function result was “did not affect”. For the same compound, in data set [6] (oral DHEA 3 weeks, control, DHEA treated and untreated groups), the “systemic blood pressure / systemic circulation” value is “No significant changes; also recorded: did not affect”.
